Series [1] has as its system ValloVax™ cells. The experiment in a line: Viability of ValloVax™ stimulator cells in MLR (CellTiter). As to conditions: ValloVax™ cells treated with VPA, cultured with allogeneic responding cells, FIG. 2. It counts as cell-based, human. Here is the method:
Cells were incubated with or without 1 mM VPA for 48 hours.
Depletion of T cells, B cells and NK cells was performed with Magnetic Activated Cell (MACS) isolation kits from Milteny Biotec following the manufacturer's instructions.
Viability was assessed by CellTiter Viability kit from Promega following the manufacturer's instructions.
(§1) Mixed lymphocyte reactions (MLR) were set up with 5×10^5 responder PBMC and 5×10^3 (1:100), 5×10^4 (1:10), […] γ-irradiated (10 Gy) ValloVax™ cells in round-bottomed 96-well plates (Nunc, Roskilde, Denmark). MLR were cultured in MEM-α supplemented with 2 mM L-glutamine, 1% P/S and 10% heat-inactivated human serum for 4 days in a humidified atmosphere with 5% CO2 at 37° C.

In the next series the test system is LLC cells. The experiment in a line: Ex vivo cytotoxicity of NK cells from in vivo valproic acid treated mice to LLC cells. In kind it is cell-based. As to conditions: NK cells isolated from in vivo valproic acid treated mice.
In series [2] the test system is ValloVax™ cells cultured with NK-92 cells. The experiment in a line: Killing of VPA treated ValloVax™ cells by NK-92 cell line. It counts as cell-based, human. As to conditions: FIG. 4. As for the experimental part:
Cells were incubated with or without 1 mM VPA for 48 hours. NK-92 cells were added to the target cells as effector cells, and the cells were co-cultured for 4 h 37° C. To block NKG2D on NK-92 cells, 10 μg/ml anti-NKG2D mAb or mouse IgG1 isotype control antibody were added to the NK cells 30 min before co-culture. Viability was assessed by CellTiter Viability kit from Promega following the manufacturer's instructions.

The subject of series [3] is mixed lymphocyte reaction (PBMC with ValloVax™ cells). The experiment in a line: Cytokine ELISA of mixed lymphocyte reaction supernatants. The following applies: ValloVax™ treated with VPA. It counts as cell-based, human. Here is the method:
(§2) Peripheral blood mononuclear cells (PBMC) were isolated from buffy coats of healthy blood donors (Sanquin, Rotterdam, the Netherlands) by density gradient centrifugation using Ficoll-Paque PLUS (density 1.077 g/ml; GE Healthcare, Uppsala, Sweden). Cells were frozen at −150° C. until further use in RPMI-1640 medium with GlutaMAX™-I (Life Technologies) supplemented with 1% P/S, 10% human serum (Sanquin) and 10% dimethylsulphoxide (DMSO; Merck, Hohenbrunn, Germany).
as §1
For cytokine analysis supernatant was collected on day two of culture and analyzed by ELISA (R & D Systems) as per manufacturer's instructions.

Series [4] concerns allogeneic responding lymphocytes (responder PBMC). The experiment in a line: Mixed lymphocyte reaction, proliferation by [3H]-thymidine incorporation. The following applies: placental endothelial stimulator cells pretreated with the agent; FIG. 1a. In kind it is cell-based, human. Here is the method:
as §2, §1
Cell proliferation was assessed by thymidine incorporation, [^3H]-thymidine (0.25 μCi/well; PerkinElmer, Groningen, the Netherlands) was added on day 4, incubated for 8 h and its incorporation was measured using the Wallac 1450 MicroBeta Trilux (PerkinElmer).
It was previously reported that ValloVax™, a placental endothelial derived cellular vaccine stimulates immunity to proliferating endothelium, resulting in tumor regression. […]

The subject of series [5] is ValloVax™ cells. The experiment in a line: Ex vivo cytotoxicity of NK cells from in vivo valproic acid treated mice to ValloVax™ cells. It counts as cell-based. The following applies: NK cells isolated from in vivo valproic acid treated mice.
For series [6], the system named is Lewis Lung Carcinoma (LLC). The experiment in a line: Established Lewis Lung Carcinoma tumor model. In kind it is in vivo, C57BL/6 mice. The following applies: for antitumor activity / efficacy: VPA systemically administered (100 mg/kg intraperitoneally every third day) to animals receiving ValloVax™, 100 mg/kg; for antitumor activity / efficacy / tumor killing activity / therapeutic efficacy: FIG. 5; for tumor killing activity / therapeutic efficacy: ValloVax™ pretreated in vitro with VPA, compared to standard ValloVax™, LLC bearing mice. From the text:
Female C57BL/6 aged 8-12 weeks were purchased from The Jackson Laboratory. Animals were housed under conventional conditions at the Animal Care Facility, Institute for Cellular Immunology, and were cared for in accordance with the guidelines established by the Canadian Council on Animal Care. Lewis Lung Carcinoma (LLC), a murine lung carcinoma originating from C57/BL6 mice was obtained from American Type Culture Collection (ATCC). The cells were maintained in RPMI1640 supplemented with 10% fetal bovine serum, 2 mM glutamine (Gibco-BRL, Life Technologies, Inc.) and were passaged by trypsinization once cells reached 75% confluence. The cell line was cultured at 37°0 C. in a 5% CO2 incubator under fully humidified conditions.
For induction of tumor growth, 5×10^5 LLC cells, American Type Culture Collection (Manassas, Va.) cells were injected subcutaneously into the hind limb flank. Four weekly vaccinations of 5×10^5 test cells were administered subcutaneously on the contralateral side to which tumors were administered. Tumors were allowed to grow for 2 weeks, subsequently to which one injection of ValloVax™ or VPA-pretreated ValloVax™ was given. Valproic acid was administered every third day at a concentration of 100 mg/kg intraperitoneally. Tumor growth was assessed every 3 days by two measurements of perpendicular diameters by a caliper, and animals were sacrificed when tumors reached a size of 1 cm in any direction. Tumor volume was calculated by the following formula: (the shortest diameter^2×the longest diameter)/2.

The subject of series [7] is non-small cell lung cancer (NSCLC). As to conditions: patients diagnosed with metastatic disease; cited from earlier work.

On to `CCCC(CCC)C(=O)O` [VPA, Valproic acid], for which the entries for the “viability of the ValloVax™ cells in MLR” value in the series on ValloVax™ cells [1] and with ValloVax™ cells [1] (listed as valproic acid) were “dose-dependent loss of viability” and “killing of ValloVax™ in vitro by an NK cell dependent mechanism”, respectively. In the series on LLC cells, the “cytotoxicity of NK cells to LLC cells” value is listed as “enhanced cytotoxicity”. Besides, the “toxicity to VPA treated ValloVax™ cells” value in series [2] was “toxicity was observed”. In series [3] (FIG. 1d), the “IL-10 in MLR” value is recorded as “no significant upregulation”. For the same molecule, the “production of IFN-gamma in MLR” value in series [3] (supernatants from MLR at 48 hours, FIG. 1b) is given as “substantially increased”. Also, the “production of IL-18 in MLR” value in series [3] (supernatants from MLR at 48 hours, FIG. 1c) was “substantially increased”. Besides, the “Proliferation of allogeneic responding lymphocytes (allostimulatory activity)” value in series [4] is given as “not”. In the series with ValloVax™ cells [5], the “cytotoxicity of NK cells to ValloVax™ cells ex vivo” value is reported as “enhanced cytotoxicity”. In addition, the “antitumor activity / efficacy” value in series [6] is on record as “synergistic antitumor activity”; in series [6] (listed as valpoic acid), “enhanced antitumor efficacy”; in series [6] (listed as valproic acid), “augmented efficacy against lung cancer”. Further, the “tumor killing activity / therapeutic efficacy” value is reported as “did not significantly augment” in series [6] and “did not augment in vivo efficacy” in series [6] (listed as valproic acid). In addition, the Survival result in series [6] (in vivo administration of VPA and ValloVax, established lung cancer model) is recorded as “Significantly Enhances Survival”.
Consider `Nc1nc2[nH]cc(CCc3ccc(C(=O)N[C@@H](CCC(=O)O)C(=O)O)cc3)c2c(=O)[nH]1` [pemetrexed], for which, in series [7], the “median overall survival (OS)” value is reported as 17 months.

B1: interferon gamma: cytokine used to pretreat placental endothelial cells (100 IU per ml) (protein, UniProt P01579 24-161, looked up)
Interferon gamma: QDPYVKEAENLKKYFNAGHSDVADNGTLFLGILKNWKEESDRKIMQSQIVSFYFKLFKNFKDDQSIQKSVETIKEDMNVKFFNSNKKKRDDFEKLTNYSVTDLNVQRKAIHELIQVMAELSPAAKTGKRKRSQMLFRG
With B1, the “Proliferation of allogeneic responding lymphocytes (allostimulatory activity)” value in series [4] is “substantially enhanced”.

The values above are taken from patent US20170021002A1, “AUGMENTATION OF CANCER AND CANCER ENDOTHELIAL VACCINE IMMUNOGENICITY BY HISTONE DEACETYLASE INHIBITORS” (Batu Biologics, Inc., priority 2015, published 2017).
